Laboratory results as given in patent US10501479B2, “Benzenesulfonyl-asymmetric ureas and medical uses thereof” (HELSINN HEALTHCARE SA, priority 2016, dated 2019).
Where two headings read alike, the source gives them in different places.

Key:
Type in all cases: cell-based
[1] = biological target: T1, recombinant human ghrelin receptor (HEK293/GRLN) (Homo sapiens, UniProt Q92847); assay: Ghrelin inverse agonist potency (EC50) with IP-1 (IP-One HTRF) assay; conditions: IP-1 assay
T1 construct: expressed in transfected cells
T1 sequence (Q92847 whole entry): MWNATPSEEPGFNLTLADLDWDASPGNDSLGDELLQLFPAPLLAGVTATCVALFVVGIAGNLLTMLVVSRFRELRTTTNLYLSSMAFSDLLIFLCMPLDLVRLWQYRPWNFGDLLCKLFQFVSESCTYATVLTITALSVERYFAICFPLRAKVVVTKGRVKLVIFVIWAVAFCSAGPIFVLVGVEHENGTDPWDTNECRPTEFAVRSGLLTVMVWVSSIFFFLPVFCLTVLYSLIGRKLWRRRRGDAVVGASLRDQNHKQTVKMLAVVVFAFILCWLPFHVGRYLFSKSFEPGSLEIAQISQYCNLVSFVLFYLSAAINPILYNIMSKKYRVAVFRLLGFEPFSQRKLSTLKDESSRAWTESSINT
Method in brief: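 IP-1 accumulation was measured by HTRF (IP1-d2/Tb-cryptate, 620/665 nm read after 1 hour at room temperature) following 1 hour of compound treatment at 37° C. Cells were HEK293 stably expressing human ghrelin receptor, plated a day earlier on Matrigel. Inverse agonist potency was reported as EC50.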

[2] = biological target: T2, GHSR-1a (HEK293/GHSR1a cell line) (Homo sapiens, UniProt Q92847); assay: Ghrelin agonist potency (EC50) with calcium FLIPR assay; conditions: for EC50: HEK293/GHSR1a, read-out: Activity EC50/EMax: EC50 (ghrelin agonist potency)
T2 construct: expressed in transfected cells; host or cells: HEK293/GHSR1a cell line
T2 sequence (Q92847 whole entry): as above
Description: Evaluation of Ghrelin Agonist (EC50) and Antagonist Potency (IC50) with Calcium FLIPR Assay:
The intracellular calcium assay was carried out in a 384-well format FLIPR™ (Molecular Device) HEK293/GHSR1a cell line. Cells were seeded 24 hr prior to the experiments at an optimal density per well. Preincubation with selected calcium dye lasted for 30-60 min at room temperature or 37° C. Test compounds, dissolved in DMSO, were added at the appropriate time and incubated for 15 min followed by the addition of ghrelin with FlexStation or FLIPR. Relative fluorescence was monitored by the FLIPR™ Molecular Device. EC50 and IC50 values were estimated from dose-response data using GraphPad Prism software. To check for GHSR-1a agonism, the compound was added at t=20 sec. and the calcium response was followed for 2 minutes. To check for GHSR-1a antagonism, the compound and Ghrelin (10 nM) were added to the cells at t=20 sec. and the calcium response was measured for 2 minutes. The potency of the antagonist was calculated by its ability to reduce the ghrelin response. Dose-response curves were made for relevant antagonists.

[3] = biological target: T2, GHSR-1a (HEK293/GHSR1a cell line); assay: Ghrelin antagonist potency (IC50) with calcium FLIPR assay, ghrelin 10 nM
Method in brief: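 Fluorescence read-out of intracellular calcium over 2 min. Agonist EC50 came from compound added alone at t=20 sec. Antagonist IC50 came from the reduction of the response to 10 nM ghrelin co-added with compound at t=20 sec. Both were fitted from dose-response data.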

[4] = HEK293/GRLN, read-out: Activity EC50 (ghrelin inverse agonist potency)
[5] = HEK293/GHSR1a, ghrelin 10 nM, read-out: Activity IC50 (ghrelin antagonist potency)

| SMILES | EC50 ([1]; inverse agonist potency, read-out: EC50 (Activity)) | EC50/EMax: EC50 (Activity) ([2]; ghrelin agonist potency) | IC50 ([3]; ghrelin antagonist potency, read-out: IC50 (Activity)) | EC50 [1, 4] | EC50 [2] | IC50 [3, 5] |
| --- | --- | --- | --- | --- | --- | --- |
| C[C@H](NC(=O)Nc1ccc(S(=O)(=O)Nc2ccc3[nH]cnc3c2)cc1)c1cccc(Cl)c1Cl [H1111, (S)-N-(1H-benzo[d]imidazol-5-yl)-4-(3-(1-(2,3-dichlorophenyl)ethyl)ureido) benzenesulfonamide] | 1.23 µM | > 30 µM | 2.25 µM |  |  |  |
| CC(NC(=O)Nc1ccc(S(=O)(=O)Cc2ccc3c(c2)CNC3)cc1)c1cccnc1 (centres unmarked) [H1273, 1-(4-((isoindolin-5-ylmethyl)sulfonyl)phenyl)-3-(1-(pyridin-3-yl)ethyl)urea] |  |  |  | 0.192 µM | > 30 µM | 1.03 µM |
| CC(NC(=O)Nc1ccc(S(=O)(=O)Cc2ccc3c(c2)CNC3)cc1)c1ccncc1 (centres unmarked) [H1274, 1-(4-((isoindolin-5-ylmethyl)sulfonyl)phenyl)-3-(1-(pyridin-4-yl)ethyl)urea] |  |  |  | 0.685 µM | > 30 µM | 1.58 µM |
| CC(NC(=O)Nc1ccc(S(=O)(=O)Cc2ccc(CN3CCOCC3)cc2)cc1)c1ccccc1 (centres unmarked) [H1275, 1-(4-((4-(morpholinomethyl)benzyl)sulfonyl)phenyl)-3-(1-phenylethyl)urea] |  |  |  | 0.31 µM | > 30 µM | 1.02 µM |
| CC(NC(=O)Nc1ccc(S(=O)(=O)Cc2ccc3c(c2)CNC3)cc1)c1cc(N2CCOCC2)ccc1Cl (centres unmarked) [H1283, 1-(1-(2-chloro-5-morpholinophenyl)ethyl)-3-(4-((isoindolin-5-ylmethyl)sulfonyl)phenyl)urea] |  |  |  | 0.201 µM | > 30 µM | 0.379 µM |
| C[C@H](NC(=O)Nc1ccc2c(c1)CC(c1ccc3c(c1)CN(C)C3)S2(=O)=O)c1ccccc1 (stereo partly drawn) [H1285, 1-(2-(2-methylisoindolin-5-yl)-1,1-dioxido-2,3-dihydrobenzo[b]thiophen-5-yl)-3-((S)-1-phenylethyl)urea] |  |  |  |  | 0.147 µM | 0.065 µM |
| CC(NC(=O)Nc1ccc(S(=O)(=O)Cc2ccc3c(c2)CNC3=O)cc1)c1ccccc1 (centres unmarked) [H1292, 1-(4-(((1-oxoisoindolin-5-yl)methyl)sulfonyl)phenyl)-3-(1-phenylethyl)urea] |  |  |  |  | > 30 µM | > 30 µM |
| CC(NC(=O)Nc1ccc(S(=O)(=O)Cc2ccc3c(c2)C(N2CCCC2)CC3)cc1)c1ccccc1 (centres unmarked) [H1294, 1-(1-phenylethyl)-3-(4-(((3-(pyrrolidin-1-yl)-2,3-dihydro-1H-inden-5-yl)methyl)sulfonyl)phenyl)urea] |  |  |  |  | 12.9 µM | 3.32 µM |
| C[C@H](NC(=O)Nc1ccc(S(=O)(=O)Cc2ccc(CN3CCC(O)C3)cc2)cc1)c1ccccc1 (stereo partly drawn) [H1313, 1-(4-((4-((3-hydroxypyrrolidin-1-yl)methyl)benzyl)sulfonyl)phenyl)-3-((S)-1-phenylethyl)urea] |  |  |  |  | > 30 µM | 1.46 µM |
| C[C@H](NC(=O)Nc1ccc(S(=O)(=O)Cc2ccc(CN3CCC(CO)C3)cc2)cc1)c1ccccc1 (stereo partly drawn) [H1314, 1-(4-((4-((3-(hydroxymethyl)pyrrolidin-1-yl)methyl)benzyl)sulfonyl)phenyl)-3-((S)-1-phenylethyl)urea] |  |  |  |  | > 30 µM | 3.1 µM |
| C[C@H](NC(=O)Nc1ccc(S(=O)(=O)Nc2ccc3c(c2)CCN(C)C3)cc1)c1ccccc1 [H1315, (S)-N-(2-methyl-1,2,3,4-tetrahydroisoquinolin-6-yl)-4-(3-(1-phenylethyl)ureido) benzenesulfonamide] |  |  |  |  | > 30 µM | 0.301 µM |
| CC(NC(=O)Nc1ccc(S(=O)(=O)Cc2cccc(CN3CCCC3)c2)cc1)c1ccccc1 (centres unmarked) [H1318, 1-(1-phenylethyl)-3-(4-((3-(pyrrolidin-1-ylmethyl)benzyl)sulfonyl)phenyl)urea] |  |  |  |  | > 30 µM | 5.31 µM |
| C[C@H](NC(=O)Nc1ccc(S(=O)(=O)Cc2ccc3c(c2)C2CCC3N2)cc1)c1ccccc1 (stereo partly drawn) [H1324, 1-((S)-1-phenylethyl)-3-(4-(((1,2,3,4-tetrahydro-1,4-epiminonaphthalen-6-yl)methyl)sulfonyl)phenyl)urea] |  |  |  |  | > 30 µM | 10.5 µM |
| C[C@H](NC(=O)Nc1ccc(S(=O)(=O)Cc2ccc3c(c2)C2CCC3N2C)cc1)c1ccccc1 (stereo partly drawn) [H1325, 1-(4-(((9-methyl-1,2,3,4-tetrahydro-1,4-epiminonaphthalen-6-yl)methyl)sulfonyl)phenyl)-3-((S)-1-phenylethyl)urea] |  |  |  |  | > 30 µM | 3.83 µM |
| C[C@H](NC(=O)Nc1ccc(S(=O)(=O)Cc2ccc(C3CCCN3)cc2)cc1)c1ccccc1 (stereo partly drawn) [H1328, 1-((S)-1-phenylethyl)-3-(4-((4-(pyrrolidin-2-yl)benzyl)sulfonyl)phenyl)urea] |  |  |  |  | > 30 µM | 0.546 µM |
| CC(NC(=O)Nc1ccc(S(=O)(=O)Cc2ccc3nn(C)cc3c2)cc1)c1ccccc1 (centres unmarked) [H1329, 1-(4-(((2-methyl-2H-indazol-5-yl)methyl)sulfonyl)phenyl)-3-(1-phenylethyl)urea] |  |  |  |  | > 30 µM | > 30 µM |
| CCN(CC)c1ccc(CS(=O)(=O)c2ccc(NC(=O)NC(C)c3cccc(Cl)c3Cl)cc2)cc1 (centres unmarked) [H1360, 1-(1-(2,3-dichlorophenyl)ethyl)-3-(4-((4-(diethylamino)benzyl)sulfonyl)phenyl)urea] |  |  |  |  | > 30 µM | > 30 µM |
| CCN(CC)CCCS(=O)(=O)c1ccc(NC(=O)NC(C)c2cccc(Cl)c2Cl)cc1 (centres unmarked) [H1361, 1-(1-(2,3-dichlorophenyl)ethyl)-3-(4-((3-(diethylamino)propyl)sulfonyl)phenyl)urea] |  |  |  |  | > 30 µM | 1.61 µM |
| COc1cc(N2C[C@@H](C)N[C@@H](C)C2)ccc1NS(=O)(=O)c1ccc(NC(=O)N[C@H](C)c2cccc(Cl)c2Cl)cc1 [H1362, 4-(3-((R)-1-(2,3-dichlorophenyl)ethyl)ureido)-N-(4-((cis)-3,5-dimethylpiperazin-1-yl)-2-methoxyphenyl) benzenesulfonamide] |  |  |  |  | > 30 µM | 1.55 µM |
| CC(NC(=O)Nc1ccc(S(=O)(=O)CC2CCCN(CC3CCCO3)C2)cc1)c1cccc(Cl)c1Cl (centres unmarked) [H1375, 1-(1-(2,3-dichlorophenyl)ethyl)-3-(4-(((1-((tetrahydrofuran-2-yl)methyl)piperidin-3-yl)methyl)sulfonyl)phenyl)urea] |  |  |  |  | > 30 µM | > 30 µM |
| CC(c1ccccc1)N(C)C(=O)Nc1ccc(S(=O)(=O)Cc2ccc3c(c2)CNC3)cc1F (centres unmarked) [H1399, 3-(2-fluoro-4-((isoindolin-5-ylmethyl)sulfonyl)phenyl)-1-methyl-1-(1-phenylethyl)urea] |  |  |  |  | > 30 µM | 2.06 µM |
| CC1Cc2cc(CS(=O)(=O)c3ccc(NC(=O)NC(C)c4cccc(Cl)c4Cl)c(F)c3)ccc2CN1 (centres unmarked) [H1401, 1-(1-(2,3-dichlorophenyl)ethyl)-3-(2-fluoro-4-(((3-methyl-1,2,3,4-tetrahydroisoquinolin-6-yl)methyl)sulfonyl)phenyl)urea] |  |  |  |  | > 30 µM | 0.0034 µM |
| CC1Cc2cc(CS(=O)(=O)c3ccc(NC(=O)N(C)C(C)c4cccc(Cl)c4Cl)c(F)c3)ccc2CN1 (centres unmarked) [H1402, 1-(1-(2,3-dichlorophenyl)ethyl)-3-(2-fluoro-4-(((3-methyl-1,2,3,4-tetrahydroisoquinolin-6-yl)methyl)sulfonyl)phenyl)-1-methylurea] |  |  |  |  | > 30 µM | 0.075 µM |
| CC1Cc2cc(CS(=O)(=O)c3ccc(NC(=O)N[C@@H](C)c4cccc(Cl)c4Cl)cc3)ccc2CN1 (stereo partly drawn) [H1403, 1-((S)-1-(2,3-dichlorophenyl)ethyl)-3-(4-(((3-methyl-1,2,3,4-tetrahydroisoquinolin-6-yl)methyl)sulfonyl)phenyl)urea] |  |  |  |  | > 30 µM | 0.0015 µM |
